The cell lines below were run with CC(=O)c1c(C)c2cnc(Nc3ccc(N4CCN(CCOCCOCCOCCNC(=O)COc5cccc6c5C(=O)N(C5CCC(=O)NC5=O)C6=O)CC4)cn3)nc2n(C2CCCC2)c1=O [BSJ-03-123] (assay: increase in dead-cell fraction, 72 h; higher = more death). Details: 0.001 µM.
For MDAMB231, the “increase in dead-cell fraction” value was -0.0008.
MDAMB330 was tested, and the “increase in dead-cell fraction” value was 0.0018.
For MDAMB361, the “increase in dead-cell fraction” value was 0.0068.
MDAMB415 was tested, and the “increase in dead-cell fraction” value was -0.001.
MDAMB436 was tested, and the “increase in dead-cell fraction” value was -0.0105.

Same assay, conditions: 0.003162 µM
In the case of MDAMB231, the “increase in dead-cell fraction” value is reported as -0.0016.
For MDAMB330, the “increase in dead-cell fraction” value was 0.0001.
For MDAMB361, the “increase in dead-cell fraction” value was 0.0047.
With MDAMB415 the “increase in dead-cell fraction” value was 0.0018.
In the case of MDAMB436, the “increase in dead-cell fraction” value is reported as 0.0015.

Same assay, conditions: 0.01 µM
MDAMB231 was tested, and the “increase in dead-cell fraction” value was 0.0034.
With MDAMB330 the “increase in dead-cell fraction” value was 0.0015.
With MDAMB361 the “increase in dead-cell fraction” value was 0.0008.
With MDAMB415 the “increase in dead-cell fraction” value was 0.0044.
With MDAMB436 the “increase in dead-cell fraction” value was 0.0056.

Same assay, conditions: 0.03162 µM
MDAMB231 was tested, and the “increase in dead-cell fraction” value was 0.0017.
With MDAMB330 the “increase in dead-cell fraction” value was 0.003.
For MDAMB361, the “increase in dead-cell fraction” value was 0.006.
In the case of MDAMB415, the “increase in dead-cell fraction” value is reported as 0.0034.
MDAMB436 was tested, and the “increase in dead-cell fraction” value was -0.0027.

Same assay, conditions: 0.1 µM
In the case of MDAMB231, the “increase in dead-cell fraction” value is reported as 0.0035.
For MDAMB330, the “increase in dead-cell fraction” value was 0.0019.
With MDAMB361 the “increase in dead-cell fraction” value was 0.0093.
For MDAMB415, the “increase in dead-cell fraction” value was 0.0066.
For MDAMB436, the “increase in dead-cell fraction” value was 0.0104.

Same assay, conditions: 0.3162 µM
In the case of MDAMB231, the “increase in dead-cell fraction” value is reported as 0.0024.
With MDAMB330 the “increase in dead-cell fraction” value was 0.0031.
In the case of MDAMB361, the “increase in dead-cell fraction” value is reported as 0.0131.
For MDAMB415, the “increase in dead-cell fraction” value was 0.0057.
In the case of MDAMB436, the “increase in dead-cell fraction” value is reported as 0.0058.

Same assay, conditions: 1 µM
In the case of MDAMB231, the “increase in dead-cell fraction” value is reported as 0.0009.
For MDAMB330, the “increase in dead-cell fraction” value was 0.0019.
In the case of MDAMB361, the “increase in dead-cell fraction” value is reported as 0.0189.
In the case of MDAMB415, the “increase in dead-cell fraction” value is reported as 0.0048.
MDAMB436 was tested, and the “increase in dead-cell fraction” value was -0.0041.

Same assay, conditions: 3.162 µM
MDAMB231 was tested, and the “increase in dead-cell fraction” value was 0.0031.
MDAMB330 was tested, and the “increase in dead-cell fraction” value was 0.0034.
With MDAMB361 the “increase in dead-cell fraction” value was 0.0054.
For MDAMB415, the “increase in dead-cell fraction” value was 0.0092.
MDAMB436 was tested, and the “increase in dead-cell fraction” value was 0.0011.

Same assay, conditions: 10 µM
With MDAMB231 the “increase in dead-cell fraction” value was 0.157.
In the case of MDAMB330, the “increase in dead-cell fraction” value is reported as 0.0354.
In the case of MDAMB361, the “increase in dead-cell fraction” value is reported as 0.0713.
For MDAMB415, the “increase in dead-cell fraction” value was 0.0219.
MDAMB436 was tested, and the “increase in dead-cell fraction” value was 0.0742.

What follows are cell lines tested with CC(=O)c1c(C)c2cnc(Nc3ccc(N4CCNCC4)cn3)nc2n(C2CCCC2)c1=O in the same assay as above. Details: 0.0003162 µM.
MDAMB231 was tested, and the “increase in dead-cell fraction” value was -0.0007.
For MDAMB330, the “increase in dead-cell fraction” value was -0.001.
In the case of MDAMB361, the “increase in dead-cell fraction” value is reported as 0.0032.
In the case of MDAMB415, the “increase in dead-cell fraction” value is reported as 0.0016.
With MDAMB436 the “increase in dead-cell fraction” value was -0.0017.

Same assay, conditions: 0.001 µM
MDAMB231 was tested, and the “increase in dead-cell fraction” value was 0.0057.
For MDAMB330, the “increase in dead-cell fraction” value was -0.0006.
For MDAMB361, the “increase in dead-cell fraction” value was -0.0062.
For MDAMB415, the “increase in dead-cell fraction” value was -0.0037.
In the case of MDAMB436, the “increase in dead-cell fraction” value is reported as 0.0024.

Same assay, conditions: 0.003162 µM
With MDAMB231 the “increase in dead-cell fraction” value was -0.0035.
For MDAMB330, the “increase in dead-cell fraction” value was -0.001.
For MDAMB361, the “increase in dead-cell fraction” value was -0.002.
For MDAMB415, the “increase in dead-cell fraction” value was 0.0018.
In the case of MDAMB436, the “increase in dead-cell fraction” value is reported as -0.0027.

Same assay, conditions: 0.01 µM
With MDAMB231 the “increase in dead-cell fraction” value was -0.0069.
In the case of MDAMB330, the “increase in dead-cell fraction” value is reported as -0.0033.
For MDAMB361, the “increase in dead-cell fraction” value was 0.0022.
In the case of MDAMB415, the “increase in dead-cell fraction” value is reported as -0.0004.
MDAMB436 was tested, and the “increase in dead-cell fraction” value was -0.0025.

Same assay, conditions: 0.03162 µM
MDAMB231 was tested, and the “increase in dead-cell fraction” value was -0.0054.
In the case of MDAMB330, the “increase in dead-cell fraction” value is reported as -0.0012.
With MDAMB361 the “increase in dead-cell fraction” value was 0.0148.
With MDAMB415 the “increase in dead-cell fraction” value was 0.0059.
With MDAMB436 the “increase in dead-cell fraction” value was 0.

Same assay, conditions: 0.1 µM
In the case of MDAMB231, the “increase in dead-cell fraction” value is reported as 0.0066.
In the case of MDAMB330, the “increase in dead-cell fraction” value is reported as -0.0017.
MDAMB361 was tested, and the “increase in dead-cell fraction” value was 0.0157.
With MDAMB415 the “increase in dead-cell fraction” value was 0.0074.
In the case of MDAMB436, the “increase in dead-cell fraction” value is reported as 0.0005.

Same assay, conditions: 0.3162 µM
With MDAMB231 the “increase in dead-cell fraction” value was 0.0151.
With MDAMB330 the “increase in dead-cell fraction” value was 0.0031.
In the case of MDAMB361, the “increase in dead-cell fraction” value is reported as 0.0051.
MDAMB415 was tested, and the “increase in dead-cell fraction” value was 0.0128.
In the case of MDAMB436, the “increase in dead-cell fraction” value is reported as -0.0024.

Same assay, conditions: 1 µM
For MDAMB231, the “increase in dead-cell fraction” value was 0.0334.
In the case of MDAMB330, the “increase in dead-cell fraction” value is reported as 0.0053.
For MDAMB361, the “increase in dead-cell fraction” value was 0.0076.
In the case of MDAMB415, the “increase in dead-cell fraction” value is reported as 0.0178.
MDAMB436 was tested, and the “increase in dead-cell fraction” value was -0.0052.

Same assay, conditions: 3.162 µM
MDAMB231 was tested, and the “increase in dead-cell fraction” value was 0.0399.
In the case of MDAMB330, the “increase in dead-cell fraction” value is reported as 0.0031.
MDAMB361 was tested, and the “increase in dead-cell fraction” value was 0.0191.
In the case of MDAMB415, the “increase in dead-cell fraction” value is reported as 0.0141.
For MDAMB436, the “increase in dead-cell fraction” value was 0.0044.

The cell lines below were run with CN(C)C(=O)c1cc2cnc(Nc3ccc(N4CCNCC4)cn3)nc2n1C1CCCC1 [LEE011/Ribociclib] in the same assay as above. Details: 0.001 µM.
MDAMB231 was tested, and the “increase in dead-cell fraction” value was -0.0007.
MDAMB330 was tested, and the “increase in dead-cell fraction” value was 0.0031.
With MDAMB361 the “increase in dead-cell fraction” value was 0.0114.
MDAMB415 was tested, and the “increase in dead-cell fraction” value was 0.0085.
MDAMB436 was tested, and the “increase in dead-cell fraction” value was -0.0008.

Same assay, conditions: 0.003162 µM
With MDAMB231 the “increase in dead-cell fraction” value was -0.0028.
In the case of MDAMB330, the “increase in dead-cell fraction” value is reported as 0.0013.
For MDAMB361, the “increase in dead-cell fraction” value was 0.0106.
For MDAMB415, the “increase in dead-cell fraction” value was 0.0083.
For MDAMB436, the “increase in dead-cell fraction” value was -0.0095.

Same assay, conditions: 0.01 µM
In the case of MDAMB231, the “increase in dead-cell fraction” value is reported as 0.0009.
In the case of MDAMB330, the “increase in dead-cell fraction” value is reported as 0.0054.
In the case of MDAMB361, the “increase in dead-cell fraction” value is reported as 0.009.
For MDAMB415, the “increase in dead-cell fraction” value was 0.01.
In the case of MDAMB436, the “increase in dead-cell fraction” value is reported as -0.0034.

Same assay, conditions: 0.03162 µM
MDAMB231 was tested, and the “increase in dead-cell fraction” value was -0.0021.
In the case of MDAMB330, the “increase in dead-cell fraction” value is reported as 0.0111.
With MDAMB361 the “increase in dead-cell fraction” value was 0.0147.
In the case of MDAMB415, the “increase in dead-cell fraction” value is reported as 0.0117.
MDAMB436 was tested, and the “increase in dead-cell fraction” value was -0.0032.

Same assay, conditions: 0.1 µM
In the case of MDAMB231, the “increase in dead-cell fraction” value is reported as 0.0045.
MDAMB330 was tested, and the “increase in dead-cell fraction” value was 0.0037.
MDAMB361 was tested, and the “increase in dead-cell fraction” value was 0.0129.
For MDAMB415, the “increase in dead-cell fraction” value was 0.0179.
With MDAMB436 the “increase in dead-cell fraction” value was 0.0007.

Same assay, conditions: 0.3162 µM
With MDAMB231 the “increase in dead-cell fraction” value was 0.005.
MDAMB330 was tested, and the “increase in dead-cell fraction” value was -0.0005.
For MDAMB361, the “increase in dead-cell fraction” value was 0.0218.
With MDAMB415 the “increase in dead-cell fraction” value was 0.0109.
In the case of MDAMB436, the “increase in dead-cell fraction” value is reported as -0.0014.

Same assay, conditions: 1 µM
With MDAMB231 the “increase in dead-cell fraction” value was 0.0045.
MDAMB330 was tested, and the “increase in dead-cell fraction” value was -0.0028.
With MDAMB361 the “increase in dead-cell fraction” value was 0.0159.
With MDAMB415 the “increase in dead-cell fraction” value was 0.0253.
With MDAMB436 the “increase in dead-cell fraction” value was -0.0035.

Same assay, conditions: 3.162 µM
With MDAMB231 the “increase in dead-cell fraction” value was 0.0025.
For MDAMB330, the “increase in dead-cell fraction” value was 0.0128.
In the case of MDAMB361, the “increase in dead-cell fraction” value is reported as 0.0012.
For MDAMB415, the “increase in dead-cell fraction” value was 0.0174.
In the case of MDAMB436, the “increase in dead-cell fraction” value is reported as -0.0137.

Same assay, conditions: 10 µM
For MDAMB231, the “increase in dead-cell fraction” value was 0.014.
MDAMB330 was tested, and the “increase in dead-cell fraction” value was 0.0025.
For MDAMB361, the “increase in dead-cell fraction” value was 0.0018.
With MDAMB415 the “increase in dead-cell fraction” value was 0.0203.
For MDAMB436, the “increase in dead-cell fraction” value was 0.0049.

— the supplement of paper PMC9663587
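Also: breast cancer cell lines in 384-well plates, stained with Hoechst plus LIVE/DEAD far red dye and imaged, cells above an LDR intensity threshold counted dead, Hoechst-negative corpses included.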
